Assay results: patent publication US8349846B2, “Fused pyrimidine derivatives as TRPV3 modulators” (Glenmark Pharmaceuticals, S.A., priority 2008, dated 2013)

Target: T1, Human TRPV3 (Homo sapiens, UniProt Q8NET8)
T1 construct: expressed in transfected cells; host or cells: CHO cells (selected with G-418)
T1 sequence (Q8NET8 1-790): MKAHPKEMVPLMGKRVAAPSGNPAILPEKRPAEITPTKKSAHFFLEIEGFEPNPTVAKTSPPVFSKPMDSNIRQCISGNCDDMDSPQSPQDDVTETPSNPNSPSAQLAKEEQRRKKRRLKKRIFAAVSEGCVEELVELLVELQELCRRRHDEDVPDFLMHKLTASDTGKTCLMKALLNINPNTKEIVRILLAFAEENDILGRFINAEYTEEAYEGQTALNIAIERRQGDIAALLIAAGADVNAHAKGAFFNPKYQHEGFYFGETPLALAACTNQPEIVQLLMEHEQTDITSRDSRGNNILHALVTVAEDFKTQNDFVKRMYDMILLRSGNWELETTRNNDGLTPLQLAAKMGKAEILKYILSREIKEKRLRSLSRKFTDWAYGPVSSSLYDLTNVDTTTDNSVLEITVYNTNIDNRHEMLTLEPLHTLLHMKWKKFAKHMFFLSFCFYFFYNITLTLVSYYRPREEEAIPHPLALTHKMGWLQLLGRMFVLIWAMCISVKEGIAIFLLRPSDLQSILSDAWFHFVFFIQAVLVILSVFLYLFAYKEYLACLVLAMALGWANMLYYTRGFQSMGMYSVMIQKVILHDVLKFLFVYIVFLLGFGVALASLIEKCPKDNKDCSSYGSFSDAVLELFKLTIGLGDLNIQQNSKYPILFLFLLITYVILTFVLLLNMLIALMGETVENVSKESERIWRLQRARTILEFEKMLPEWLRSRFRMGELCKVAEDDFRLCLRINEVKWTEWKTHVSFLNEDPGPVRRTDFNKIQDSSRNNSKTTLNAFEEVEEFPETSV
Experiment: Screening for TRPV3 antagonist using the 45Calcium uptake assay (inhibition of 2-APB induced cellular uptake of radioactive calcium)
Assay type: cell-based
Conditions: Human TRPV3 expressing CHO cells, 2-APB 500 μM; for inhibition at 1 µM / inhibition at 10 µM: CHO; for inhibition at 1 µM / Percentage inhibition at 1.0 μM: 1.0 μM test compound; for inhibition at 1 µM: read-out: Percentage inhibition at 1.0 μM; for inhibition at 10 µM: read-out: Percentage inhibition at 10.0 μM
From the text: The illustrative examples of the present invention are screened for TRPV3 activity according to a modified procedure described in Tóth, A., Kedei, N., Wang, Y. and Blumberg, P. M. Life Sciences (2003), 73, 487-498. The screening of the compounds can be carried out by other methods and procedures known to a person skilled in the art. Such screening methods may be found in (a) Hu, H.-Z. et al. J. Biol. Chem. (2004), 279, 35741-35747; (b) Smith, G. D. et al. Nature (2002), 418, 186-190; (c) Peier, A. M. et al. Science (2002), 296, 2046-2049.
Screening for TRPV3 Antagonist Using the ^45Calcium Uptake Assay:
The inhibition of TRPV3 receptor activation was followed as inhibition of 2-aminoethxydiphenylborate (2-APB) induced cellular uptake of radioactive calcium. Test compounds were dissolved in dimethyl sulfoxide (DMSO) to prepare 20 mM stock solution and then diluted using plain medium with DMEM/F-12 containing 1.8 mM CaCl2 to get desired concentration. Final concentration of DMSO in the reaction was 0.5% (v/v). Human TRPV3 expressing CHO cells were grown in DMEM/F-12 medium with 10% FBS, 1% penicillin-streptomycin solution, 400 μg/ml of G-418. Cells were seeded 24 h prior to the assay in 96 well plates so as to get ˜50,000 cells per well on the day of experiment. Cells were treated with test compounds for 10 minutes followed by addition of 2-APB at a final concentration of 500 μM and 5 μCi/ml ^45Ca^+2 for 4 minutes. Cells were washed and lysed using buffer containing 1% Triton X-100, 0.1% deoxycholate and 0.1% SDS. Radioactivity in the lysate was measured in Packardt Top count after addition of liquid scintillant. Concentration response curves were plotted as a % of maximal response obtained in the absence of test antagonist. IC50 value was calculated from concentration response curve by nonlinear regression analysis using GraphPad PRISM software.
Percentage inhibition at concentrations of 1.0 μM and 10.0 μM are given in the table along with IC50 (nM) values for selected examples.

Row | SMILES | inhibition at 1 µM [%] | inhibition at 10 µM (10.0 μM test compound) [%] | IC50 [nM] | Percentage inhibition at 1.0 μM [%] | Percentage inhibition at 10.0 μM (10.0 μM test compound) [%]
1 | COc1cccc(/C=C/c2nc3ccccn3c(=O)c2-c2cccc(C(F)(F)F)c2)c1OC1CCCC1 [Example 22, 2-{(E)-2-[(2-Cyclopentyloxy-3-methoxy)phenyl]vinyl}-3-(3-trifluoromethyl)phenyl-4H-pyrido[1,2-a]pyrimidin-4-one] | 22.7 | 34.6 |  |  | 
2 | COc1cccc(/C=C/c2nc3ccccn3c(=O)c2-c2cccc(O)c2)c1OC1CCCC1 [Example 25, 2-{(E)-2-[2-(Cyclopentyloxy-3-methoxy)phenyl]vinyl}-3-(3-hydroxy)phenyl-4H-pyrido-[1,2-a]-pyrimidin-4-one] | 20.7 | 93.1 | 1000 to 2500 |  | 
3 | CCCCCOc1c(/C=C/c2nc3ccccn3c(=O)c2-c2ccc(C(F)(F)F)cc2)cccc1OC [Example 11] | 69 | 86.5 |  |  | 
4 | COc1cccc(/C=C/c2nc3ccccn3c(=O)c2-c2cccc(OC(C)C)c2)c1OC1CCCC1 [Example 27, 3-(3-Isopropoxyphenyl)-2-[(E)-2-(2-cyclopentyloxy-3-methoxy)phenylvinyl]-4H-pyrido-[1,2-a]pyrimidin-4-one] | 54.2 | 77.6 | 1000 to 2500 |  | 
5 | COc1cccc(/C=C/c2nc3ccccn3c(=O)c2-c2ccc(C(F)(F)F)cc2)c1OCC1CC1 [Example 17] | 83.3 | 95.3 | < 500 |  | 
6 | COc1cccc(/C=C/c2nc3ccccn3c(=O)c2-c2cccc(NC(C)=O)c2)c1OC1CCCC1 [Example 31, N-(3-{2-[(E)-2-(2-Cyclopentyloxy-3-methoxy)phenylvinyl]-4-oxo-4H-pyrido[1,2-a]pyrimidin-3-yl}phenyl)acetamide] | 50.4 | 96.2 |  |  | 
7 | COc1cccc(/C=C/c2nc3c(OC)cccn3c(=O)c2-c2ccc(C#N)cc2)c1OC1CCCC1 [Example 41, 4-{2-[(E)-2-(2-Cyclopentyloxy-3-methoxyphenyl)vinyl]-9-methoxy-4-oxo-4H-pyrido[1,2-a]pyrimidin-3-yl}benzonitrile] | 54.8 | 87.6 |  |  | 
8 | COc1cccc(/C=C/c2nc3ccccn3c(=O)c2-c2ccncc2)c1OC1CCCC1 [Example 35, 2-{(E)-2-[2-(Cyclopentyloxy)-3-methoxyphenyl]vinyl}-3-pyridin-4-yl-4H-pyrido[1,2-a]-pyrimidin-4-one] | 18.4 | 63.3 |  |  | 
9 | COc1cccc(/C=C/c2nc3ccccn3c(=O)c2-c2ccc3c(c2)OCO3)c1OC1CCCC1 [Example 37, 3-(1,3-Benzodioxol-5-yl)-2-[(E)-2-(2-cyclopentyloxy-3-methoxy)phenylvinyl]-4H-pyrido[1,2-a]pyrimidin-4-one] | 70.1 | 91.4 |  |  | 
10 | COc1cccc(/C=C/c2nc3ccccn3c(=O)c2-c2ccc(OC(F)(F)F)cc2)c1OCC1CC1 [Example 18] | 79.5 | 93.5 | < 500 |  | 
11 | O=c1c(-c2ccc(C(F)(F)F)cc2)c(/C=C/c2cccs2)nc2ccccn12 [Example 3, 2-[(E)-2-(2-Thienyl)vinyl]-3-[4-(trifluoromethyl)phenyl]-4H-pyrido[1,2-a]pyrimidin-4-one] | 14.4 | 77.9 | 1000 to 2500 |  | 
12 | COc1cccc(/C=C/c2nc3ccccn3c(=O)c2-c2ccc(NC(C)=O)cc2)c1OC1CCCC1 [Example 32, N-(4-{2-[(E)-2-(2-Cyclopentyloxy-3-methoxy)phenylvinyl]-4-Oxo-4H-pyrido[1,2-a]pyrimidin-3-yl}phenyl)acetamide] | 34.2 | 89.6 |  |  | 
13 | COc1cccc(/C=C/c2nc3ccccn3c(=O)c2-c2ccc(C#N)cc2)c1OC1CCCC1 [Example 5, 4-{2-[(E)-2-[2-(Cyclopentyloxy)-3-methoxyphenyl)vinyl]-4-oxo-4H-pyrido[1,2-a]pyrimidin-3-yl}benzonitrile] |  | 76.2 |  | 41.6 | 
14 | CCCCCCOc1c(/C=C/c2nc3ccccn3c(=O)c2-c2ccc(C#N)cc2)cccc1OC [Example 14] | 85.1 | 92.3 | < 500 |  | 
15 | COc1cccc(/C=C/c2nc3ccccn3c(=O)c2-c2ccc(C#N)cc2)c1OC1CCCC1 [Example 28, 4-{2-[(E)-2-(2-Cyclopentyloxy-3-methoxyphenyl)vinyl]-4-oxo-4H-pyrido[1,2-a]-pyrimidin-3-yl}benzonitrile] |  |  | < 500 | 83.5 | 94.7
16 | COc1cccc(/C=C/c2nc3ccccn3c(=O)c2-c2ccc(F)nc2)c1OC1CCCC1 [Example 36, 2-{(E)-2-[2-(Cyclopentyloxy-3-methoxy)phenyl]vinyl}-3-(6-fluoro)pyridin-3-yl-4H-pyrido[1,2-a]pyrimidin-4-one] | 42.2 | 82.4 | 500 to 1000 |  | 
17 | COc1cccc(/C=C/c2nc3ccccn3c(=O)c2-c2ccc(OC(F)(F)F)cc2)c1OC1CCCC1 [Example 24, 2-{(E)-2-[(2-Cyclopentyloxy-3-methoxy)phenyl]vinyl}-3-(4-trifluoromethoxy)phenyl-4H-pyrido[1,2-a]pyrimidin-4-one] | 20.6 | 3.6 | 1000 to 2500 |  | 
18 | COc1cccc(/C=C/c2nc3ccc(Cl)cn3c(=O)c2-c2ccc(C#N)cc2)c1OC1CCCC1 [Example 43, 4-{7-Chloro-2-[(E)-2-(2-cyclopentyloxy-3-methoxy)phenylvinyl]-4-oxo-4H-pyrido[1,2-a]pyrimidin-3-yl}benzonitrile] | 78.7 | 90.2 | < 500 |  | 
